How the values were obtained:
[1] = system: PKB Ser473 phosphorylation in Rat1-myr-HA-p110 alpha cells; experiment: Reverse protein array assay, PKB Ser473 phosphorylation in Rat1-myr-p110 alpha cells; assay type: cell-based; conditions: 0.5 h, pAkt Ser473, 30 minutes compound incubation, read-out: p-PKB IC50
Outline: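 Compound exposure lasted 30 min in Rat1 cells bearing membrane-targeted HA-p110 isoforms, using 8 serial concentrations. Arrayed lysates, each spotted at four dilutions, gave relative fluorescence signals for phospho-Ser473 PKB.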

PI3K beta = target: T1, PI3K beta (Homo sapiens, UniProt P42338); experiment: PI3K beta kinase assay (Kinase-Glo luminescence); assay type: biochemical
T1 construct: for the full-length p110-b subunit are generated and fused by overlapping PCR; p85(iSH2) fusion partner (see partner chain) (N); His tag (C); made in house; host or cells: baculovirus; Tn5 (Trichoplusia ni) or TiniPro insect cells
Outline: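 IC50 is derived by four-parameter logistic curve fitting of Kinase-Glo luminescence, which measures ATP left after a 60 min room-temperature reaction. Conditions are 25 nM His-tagged p85(iSH2)-p110β, 1 μM ATP and 10 μg/mL bovine liver phosphatidylinositol.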

PI3K gamma = target: T2, PI3K gamma (Homo sapiens, UniProt P48736); experiment: PI3K gamma kinase assay (Kinase-Glo luminescence); assay type: biochemical
T2 construct: His tag (C); made in house; host or cells: baculovirus (pVL1393); Tn5 or TiniPro insect cells; construct from Roger Williams lab, MRC LMB
Outline: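 PI3Kγ (150 nM) reaction run 120 min at room temperature with phosphatidylinositol substrate (10 μg/mL) and ATP (1 μM) in Tris pH 7.5 buffer containing MgCl2, NaCl, CHAPS and DTT. Remaining ATP detected by Kinase-Glo luminescence; 8 concentrations per compound, IC50 from 4-parameter curve fitting.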

PI3K alpha = target: T3, PI3K alpha (Homo sapiens, UniProt P42336); experiment: PI3K alpha kinase assay (Kinase-Glo luminescence); assay type: biochemical
T3 construct: p85(iSH2) fusion partner (see partner chain) (N); His tag (C); made in house; host or cells: baculovirus; Tn5 (Trichoplusia ni) or TiniPro insect cells
Outline: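 PI3Kα construct EMV B1075 (10 nM final) was preincubated with 10 μg/mL phosphatidylinositol in 10 mM Tris-HCl pH 7.5, 3 mM MgCl2, 50 mM NaCl, 0.05% CHAPS, 1 mM DTT. Reaction started with 1 μM ATP, 60 min at room temperature; remaining ATP measured by Kinase-Glo luminescence. IC50 from 4-parameter logistic fit of 8-point titrations.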

T3 sequence (P42336 with tags, fused parts or gaps limits assumed): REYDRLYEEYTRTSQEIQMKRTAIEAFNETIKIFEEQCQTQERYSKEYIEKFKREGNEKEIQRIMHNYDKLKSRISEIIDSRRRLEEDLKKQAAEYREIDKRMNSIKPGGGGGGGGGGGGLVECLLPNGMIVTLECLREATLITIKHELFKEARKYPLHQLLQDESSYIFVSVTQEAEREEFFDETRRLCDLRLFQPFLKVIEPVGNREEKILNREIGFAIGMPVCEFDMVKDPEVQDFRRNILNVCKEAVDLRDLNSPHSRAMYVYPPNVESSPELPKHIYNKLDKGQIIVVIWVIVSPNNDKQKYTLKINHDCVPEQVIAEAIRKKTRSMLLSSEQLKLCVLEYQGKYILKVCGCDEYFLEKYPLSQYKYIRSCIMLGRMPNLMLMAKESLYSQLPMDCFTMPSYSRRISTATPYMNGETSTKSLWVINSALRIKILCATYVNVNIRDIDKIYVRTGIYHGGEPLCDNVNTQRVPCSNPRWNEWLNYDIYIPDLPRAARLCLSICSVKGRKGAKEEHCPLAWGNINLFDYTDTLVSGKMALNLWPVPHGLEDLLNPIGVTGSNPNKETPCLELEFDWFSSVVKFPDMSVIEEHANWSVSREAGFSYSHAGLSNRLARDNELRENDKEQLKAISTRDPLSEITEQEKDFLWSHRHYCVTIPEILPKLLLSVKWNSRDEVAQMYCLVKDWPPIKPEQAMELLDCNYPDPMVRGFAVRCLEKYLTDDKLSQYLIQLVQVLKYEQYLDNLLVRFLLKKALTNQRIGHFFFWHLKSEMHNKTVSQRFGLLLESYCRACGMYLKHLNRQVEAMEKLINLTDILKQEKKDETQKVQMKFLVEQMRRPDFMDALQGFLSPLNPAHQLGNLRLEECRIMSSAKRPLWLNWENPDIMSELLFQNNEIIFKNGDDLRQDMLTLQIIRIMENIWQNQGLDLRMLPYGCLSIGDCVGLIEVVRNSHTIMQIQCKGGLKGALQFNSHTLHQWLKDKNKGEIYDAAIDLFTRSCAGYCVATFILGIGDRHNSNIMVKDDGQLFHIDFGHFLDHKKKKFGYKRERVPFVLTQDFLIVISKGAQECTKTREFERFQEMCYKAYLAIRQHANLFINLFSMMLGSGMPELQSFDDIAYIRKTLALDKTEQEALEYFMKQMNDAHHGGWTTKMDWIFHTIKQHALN
T1 sequence (P42338 with tags, fused parts or gaps limits assumed): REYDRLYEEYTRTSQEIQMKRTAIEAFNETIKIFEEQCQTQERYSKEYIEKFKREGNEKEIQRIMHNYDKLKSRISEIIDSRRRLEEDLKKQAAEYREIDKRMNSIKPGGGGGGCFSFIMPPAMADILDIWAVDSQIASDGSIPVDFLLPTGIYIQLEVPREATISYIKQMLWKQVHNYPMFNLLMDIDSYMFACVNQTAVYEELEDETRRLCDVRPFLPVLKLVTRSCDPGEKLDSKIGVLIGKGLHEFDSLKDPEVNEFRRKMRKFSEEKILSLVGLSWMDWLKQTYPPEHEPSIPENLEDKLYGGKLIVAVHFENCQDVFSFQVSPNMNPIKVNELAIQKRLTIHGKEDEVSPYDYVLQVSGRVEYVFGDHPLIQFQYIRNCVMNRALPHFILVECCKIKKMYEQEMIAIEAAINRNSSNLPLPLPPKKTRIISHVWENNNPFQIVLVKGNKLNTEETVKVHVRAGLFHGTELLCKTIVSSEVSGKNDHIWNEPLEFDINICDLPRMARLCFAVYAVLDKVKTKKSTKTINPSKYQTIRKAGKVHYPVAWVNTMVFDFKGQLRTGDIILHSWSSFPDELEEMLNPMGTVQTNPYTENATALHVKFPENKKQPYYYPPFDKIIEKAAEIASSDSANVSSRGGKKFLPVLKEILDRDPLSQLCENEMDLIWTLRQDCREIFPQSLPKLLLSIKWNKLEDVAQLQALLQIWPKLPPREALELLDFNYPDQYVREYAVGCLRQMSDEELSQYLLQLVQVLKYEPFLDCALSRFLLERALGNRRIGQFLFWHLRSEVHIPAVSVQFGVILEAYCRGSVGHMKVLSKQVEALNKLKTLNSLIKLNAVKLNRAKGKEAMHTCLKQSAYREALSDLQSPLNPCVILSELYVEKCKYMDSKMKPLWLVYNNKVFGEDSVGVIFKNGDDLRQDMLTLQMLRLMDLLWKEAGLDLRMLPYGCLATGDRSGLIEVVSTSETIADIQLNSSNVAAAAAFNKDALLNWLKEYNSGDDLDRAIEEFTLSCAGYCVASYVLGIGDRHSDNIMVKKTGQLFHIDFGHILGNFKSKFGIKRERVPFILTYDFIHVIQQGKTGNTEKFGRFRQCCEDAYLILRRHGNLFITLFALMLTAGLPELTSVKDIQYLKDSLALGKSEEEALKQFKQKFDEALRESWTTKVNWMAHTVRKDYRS
T2 sequence (P48736 144-1102 limits assumed): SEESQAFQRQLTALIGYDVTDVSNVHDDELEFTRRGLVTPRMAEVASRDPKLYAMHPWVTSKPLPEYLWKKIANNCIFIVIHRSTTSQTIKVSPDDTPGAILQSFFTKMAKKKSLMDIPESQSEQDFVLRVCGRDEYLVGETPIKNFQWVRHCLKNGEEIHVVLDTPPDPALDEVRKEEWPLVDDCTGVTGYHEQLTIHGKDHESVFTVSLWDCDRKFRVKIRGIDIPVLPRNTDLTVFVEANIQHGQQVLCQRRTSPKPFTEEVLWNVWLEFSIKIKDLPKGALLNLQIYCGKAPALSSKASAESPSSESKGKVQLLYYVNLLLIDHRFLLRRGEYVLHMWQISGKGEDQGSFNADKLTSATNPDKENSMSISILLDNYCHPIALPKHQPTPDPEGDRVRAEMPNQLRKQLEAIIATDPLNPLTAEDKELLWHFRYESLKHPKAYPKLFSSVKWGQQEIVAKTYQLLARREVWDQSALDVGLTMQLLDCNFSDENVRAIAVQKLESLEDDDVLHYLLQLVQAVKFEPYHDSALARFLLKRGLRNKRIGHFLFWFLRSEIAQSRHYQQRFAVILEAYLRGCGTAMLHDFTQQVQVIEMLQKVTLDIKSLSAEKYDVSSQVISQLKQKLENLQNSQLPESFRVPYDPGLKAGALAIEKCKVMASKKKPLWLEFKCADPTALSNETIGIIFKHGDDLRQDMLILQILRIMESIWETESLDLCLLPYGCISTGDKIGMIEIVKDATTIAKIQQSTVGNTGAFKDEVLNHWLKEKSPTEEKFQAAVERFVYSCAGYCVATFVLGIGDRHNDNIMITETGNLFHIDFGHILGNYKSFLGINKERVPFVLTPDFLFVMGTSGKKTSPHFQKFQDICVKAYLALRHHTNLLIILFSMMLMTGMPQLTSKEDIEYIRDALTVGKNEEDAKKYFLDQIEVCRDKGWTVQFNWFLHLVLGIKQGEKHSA

IC50 [1] [µM] | IC50 (PI3K beta) [µM] | IC50 (PI3K gamma) [µM] | IC50 (PI3K alpha) [µM] | Compound
0.046 | 0.129 | 0.54 | 0.014 | COc1ccc(-c2ccc3ncc4c(c3c2)n(-c2ccnn2C)c(=O)n4C)cc1OC [Example 1.3, 8-(3,4-Dimethoxy-phenyl)-3-methyl-1-(2-methyl-2H-pyrazol-3-yl)-1,3-dihydro-imidazo[4,5-c]quinolin-2-one]
0.046 | 0.109 | 0.205 | 0.029 | COc1ccc(-c2ccc3ncc4c(c3c2)n(-c2cn(C(C)C)nc2C)c(=O)n4C)cn1 [Example 2.8, 1-(1-Isopropyl-3-methyl-1H-pyrazol-4-yl)-8-(6-methoxy-pyridin-3-yl)-3-methyl-1,3-dihydro-imidazo[4,5-c]quinolin-2-one]
0.012 | 0.068 | – | 0.023 | CCn1cc(-n2c(=O)n(C)c3cnc4ccc(-c5cnc(N)c(COC)c5)cc4c32)c(C)n1 [Example 168.2, 8-(6-Amino-5-methoxymethyl-pyridin-3-yl)-1-(1-ethyl-3-methyl-1H-pyrazol-4-yl)-3-methyl-1,3-dihydro-imidazo[4,5-c]quinolin-2-one]
0.013 | 0.009 | – | 0.005 | Cc1ncc(-c2ccc3ncc4c(c3c2)n(-c2cn(C)nc2C)c(=O)n4C)cc1O [Example 185.1, 1-(1,3-Dimethyl-1H-pyrazol-4-yl)-8-(5-hydroxy-6-methyl-pyridin-3-yl)-3-methyl-1,3-dihydro-imidazo[4,5-c]quinolin-2-one]
0.019 | 0.036 | – | 0.013 | Cc1nn(C)cc1-n1c(=O)n(C)c2cnc3ccc(-c4cnc(CO)c(OC(C)C)c4)cc3c21 [Example 190, 1-(1,3-Dimethyl-1H-pyrazol-4-yl)-8-(6-hydroxymethyl-5-isopropoxy-pyridin-3-yl)-3-methyl-1,3-dihydro-imidazo[4,5-c]quinolin-2-one]
0.014 | 0.024 | – | 0.014 | COCc1ncc(-c2ccc3ncc4c(c3c2)n(-c2cn(C)nc2C)c(=O)n4C)cc1OC(C)C [Example 191.1, 1-(1,3-Dimethyl-1H-pyrazol-4-yl)-8-(5-isopropoxy-6-methoxymethyl-pyridin-3-yl)-3-methyl-1,3-dihydro-imidazo[4,5-c]quinolin-2-one]
0.008 | 0.05 | – | 0.019 | COc1cc(-c2ccc3ncc4c(c3c2)n(-c2cn(C)nc2C)c(=O)n4C)cnc1CO [Example 193, 1-(1,3-Dimethyl-1H-pyrazol-4-yl)-8-(6-hydroxymethyl-5-methoxy-pyridin-3-yl)-3-methyl-1,3-dihydro-imidazo[4,5-c]quinolin-2-one]
0.063 | 0.072 | – | 0.018 | COCc1ncc(-c2ccc3ncc4c(c3c2)n(-c2cn(C)nc2C)c(=O)n4C)cc1OC [Example 195.1, 1-(1,3-Dimethyl-1H-pyrazol-4-yl)-8-(5-methoxy-6-methoxymethyl-pyridin-3-yl)-3-methyl-1,3-dihydro-imidazo[4,5-c]quinolin-2-one]
0.048 | 0.163 | – | 0.037 | COCc1ncc(-c2ccc3ncc4c(c3c2)n(-c2cn(C(C)C)nc2C)c(=O)n4C)cc1OC [Example 195.2, 1-(1-Isopropyl-3-methyl-1H-pyrazol-4-yl)-8-(5-methoxy-6-methoxymethyl-pyridin-3-yl)-3-methyl-1,3-dihydro-imidazo[4,5-c]quinolin-2-one]
0.092 | 0.161 | – | 0.048 | CCn1cc(-n2c(=O)n(C)c3cnc4ccc(-c5cnc(COC)c(OC)c5)cc4c32)c(C)n1 [Example 195.3, 1-(1-Ethyl-3-methyl-1H-pyrazol-4-yl)-8-(5-methoxy-6-methoxymethyl-pyridin-3-yl)-3-methyl-1,3-dihydro-imidazo[4,5-c]quinolin-2-one]
0.023 | 0.027 | – | 0.015 | [2H]C([2H])([2H])OCc1ncc(-c2ccc3ncc4c(c3c2)n(-c2cn(C)nc2Cl)c(=O)n4C)cc1OC [Example 199, 1-(3-Chloro-1-methyl-1H-pyrazol-4-yl)-8-(5-methoxy-6-trideuteromethoxymethyl-pyridin-3-yl)-3-methyl-1,3-dihydro-imidazo[4,5-c]quinolin-2-one]
0.023 | 0.013 | – | 0.011 | COCc1cc(-c2ccc3ncc4c(c3c2)n(-c2cn(C)nc2C)c(=O)n4C)cnc1OC [Example 202, 1-(1,3-Dimethyl-1H-pyrazol-4-yl)-8-(6-methoxy-5-methoxymethyl-pyridin-3-yl)-3-methyl-1,3-dihydro-imidazo[4,5-c]quinolin-2-one]
0.018 | 0.273 | – | 0.006 | Cc1nn(C)cc1-n1c(=O)n(C)c2cnc3ccc(-c4cnc5c(c4)OCCN5C)cc3c21 [Example 209, 1-(1,3-Dimethyl-1H-pyrazol-4-yl)-3-methyl-8-(4-methyl-3,4-dihydro-2H-pyrido[3,2-b][1,4]oxazin-7-yl)-1,3-dihydro-imidazo[4,5-c]quinolin-2-one]
0.043 | 0.01 | – | 0.014 | Cc1nn(C)cc1-n1c(=O)n(C)c2cnc3ccc(-c4cncc(C(C)(C)O)c4)cc3c21 [Example 215.2, 1-(1,3-Dimethyl-1H-pyrazol-4-yl)-8-[5-(1-hydroxy-1-methyl-ethyl)-pyridin-3-yl]-3-methyl-1,3-dihydro-imidazo[4,5-c]quinolin-2-one]
0.022 | 0.019 | – | 0.013 | Cc1nn(C)cc1-n1c(=O)n(C)c2cnc3ccc(-c4cncc(C5(O)CCCC5)c4)cc3c21 [Example 218, 1-(1,3-Dimethyl-1H-pyrazol-4-yl)-8-[5-(1-hydroxy-cyclopentyl)-pyridin-3-yl]-3-methyl-1,3-dihydro-imidazo[4,5-c]quinolin-2-one]
0.01 | 0.023 | – | 0.009 | Cc1nn(C)cc1-n1c(=O)n(C)c2cnc3ccc(-c4cncc(C(C)(C)C#N)c4)cc3c21 [Example 220.1, 2-{5-[1-(1,3-Dimethyl-1H-pyrazol-4-yl)-3-methyl-2-oxo-2,3-dihydro-1H-imidazo[4,5-c]quinolin-8-yl]-pyridin-3-yl}-2-methyl-propionitrile]
0.104 | 0.28 | – | 0.093 | CNC(=O)c1cc(-c2ccc3ncc4c(c3c2)n(-c2cn(C(C)C)nc2C)c(=O)n4C)cnc1N [Example 224.2, 2-Amino-5-[1-(1-isopropyl-3-methyl-1H-pyrazol-4-yl)-3-methyl-2-oxo-2,3-dihydro-1H-imidazo[4,5-c]quinolin-8-yl]-N-methyl-nicotinamide]
0.013 | 0.025 | – | < 0.003 | COc1ncc(-c2ccc3ncc4c(c3c2)n(-c2cn(C)nc2C)c(=O)n4C)c(OC)n1 [Example 234.2, 8-(2,4-Dimethoxy-pyrimidin-5-yl)-1-(1,3-dimethyl-1H-pyrazol-4-yl)-3-methyl-1,3-dihydro-imidazo[4,5-c]quinolin-2-one]
< 0.005 | 0.09 | – | 0.015 | CCn1cc(-n2c(=O)n(C)c3cnc4ccc(-c5cnc(NC)nc5OC)cc4c32)c(C)n1 [Example 236, 1-(1-Ethyl-3-methyl-1H-pyrazol-4-yl)-8-(4-methoxy-2-methylamino-pyrimidin-5-yl)-3-methyl-1,3-dihydro-imidazo[4,5-c]quinolin-2-one]

Reference: patent US20140005163A1 (NOVARTIS AG, priority 2010, published 2014)
